Here are results for 3 compounds from patent EP0989983B1 (SCHERING CORPORATION, priority 1997, dated 1998).

Molecules are shown by their SMILES. Values joined by “and” are separate entries in the source; they are usually repeats but may differ in a detail not shown here. Equal entries are not always repeated.

The target in this assay is farnesyl protein transferase (Homo sapiens, UniProt P49354+P49356). Kind of assay: FPT IC50, inhibition of farnesyl protein transferase, in vitro enzyme assay (procedure of WO 95/10516). It is filed as biochemical. Conditions: several values in a cell are repeat determinations, read-out: FPT C50. As for the experimental part:
FPT IC50 (inhibition of farnesyl protein transferase, in vitro enzyme assay). and COS Cell IC50 (Cell-Based Assay) were determined following the assay procedures described in WO 95/10516, published April 20, 1995. GGPT IC50 (inhibition of geranylgeranyl protein transferase, in vitro enzyme assay), Cell Mat Assay, and anti-tumor activity (in vivo anti-tumor studies) could be determined by the assay procedures described in WO 95/10516. The disclosure of WO 95/10516 is incorporated herein by reference thereto.
With `O=C(NCCCN1CCCC1=O)C1CN(C2c3ncc(Br)cc3CCc3cc(Cl)cc(Br)c32)CCN1` (stereo not drawn) [Compound 216, 4-(3,10-DIBROMO-8-CHLORO-6,11-DIHYDRO-5H-BENZO[5,6] CYCLOHEPTA[1,2-b]PYRIDIN-11-YL)-N-[3-(2-OXO-1-PYRROLIDINYL)PROPYL]-2-PIPERAZINECARBOXAMIDE], the IC50 was over 150 nM.

Take `COCC(=O)N1CCN(C2c3ncc(Br)cc3CCc3cc(Cl)cc(Br)c32)CC1C(=O)NCCCN1CCCC1=O` (stereo not drawn) [Compound 218]: the IC50 came to 48 nM.

`O=C(NCCc1c[nH]cn1)C1CN(C2c3ccc(Cl)cc3CCc3cc(Br)cnc32)CCN1C(=O)NC1CCCCC1` (stereo not drawn) [Compound 227]: the IC50 was 7.2 nM and 6.7 nM.
